In brackets after ≈: the same amount, converted by molar mass.
Legend:
male CRj:CD(SD) rats = assay: Oral toxicity test (14-day repeated dose); format: in vivo, rat; details: for NOEL (No Observed Effect Level): oral gavage once per day for 14 days, male rats
From the text: A test substance was emulsified and dispersed in 2%-gum arabic aqueous solution (containing 0.5%-Tween80), and forcibly administered to 6-week-old male CRj:CD(SD) rats with an oral gavage needle once per day for 14 days. The body weight variation and general condition were observed during the dosing period. The rats were fasted for one day from the final administration day (with free ingestion of drinking water), and anatomy, collection of blood samples (various blood tests), and mass measurement of the major organs were performed the next day of the final administration. In addition, histopathological examination (optical microscopic observation of HE-stained sliced section) of the liver, kidney, spleen and testis was also performed. The dose was 1000, 250, 60, 15 or 0 mg/k day (administered liquid amount=1 ml/100 g (body weight)/day), and 5 rats were used for each dose.

[1] = system: Pseudokirchneriella subcapitata; assay: Toxicity test on algae (algae growth inhibitory test, OECD 201); format: cell-based; details: Selenastrum capricornutum; 72 hr, 23° C., growth inhibition; read-out: ErC50 (72 hr)
Procedure: By reference to the OECD test guideline No. 201, an algae growth inhibitory test of a test substance was performed. To be specific, the following test substance was diluted with a test medium to give a defined dose. A suspension of algae grown to the exponential growth phase by preculture was added at an initial concentration of 1×10^4 cells/ml. After shaking culture in a light irradiation-type bio shaker (Bio Shaker BR-180 LF manufactured by TAITEC) at 23° C., algae cells were counted by a flow cytometer (Cell Lab Quant SC manufactured by BECKMAN COULTER) at 24, 48, and 72 hr from the start of the test, and the growth degree of each test dose was calculated based on the growth degree of the normal control as 100%. Also, ErC50 was calculated from the equation of the approximate curve in a graph plotting the growth inhibitory rate. As a standard substance, potassium dichromate was used.
algae: Pseudokirchneriella subcapitata
test substance (1) and test substance (2), 100, 32, 10, 3.2, 1, 0.32 mg/L (geometric ratio: √{square root over ( )}10) and 0 mg/L (normal control), respectively
standard substance: 3.2, 1, 0.32 mg/L and 0 mg/L (normal control)

[2] = system: sludge in the sewage treatment plant; assay: Bactericidal test on sludge (MTT method); format: cell-based; details: 24 hr and 48 hr, about 25° C., visual and MTT
Procedure: Glucose, peptone, and monopotassium dihydrogen phosphate (each 5 g) were dissolved in water (1 L), and adjusted to pH 7.0±1.0 with sodium hydroxide to give synthetic sewer water, to which sludge in the sewage treatment plant in Mizushima area, Kurashiki-shi, Okayama-ken, Japan, was added at 30 ppm based on dry mass, whereby a bacterial culture was prepared. On the other hand, a test substance was diluted with distilled water in 10 phases to a final concentration of 1000-0.004 ppm (geometric ratio=4) on a 24 well microplate, and used as a test solution. Two wells were used for each concentration. As a comparison target, distilled water+bacterial culture was used as “bacterial culture blank”, and distilled water alone was used as “blank”.
The bacterial culture and test solution prepared above were mixed at a volume ratio 1:1, stood in a thermostatic tank at ambient temperature (about 25° C.) for 24 hr and 48 hr, and the level of sludge influence at each concentration of the test substance was visually observed and confirm by the MTT method. MTT reagent is converted by microorganism mitochondria in the sludge, forms formazan and develops a blue color.

Compound	NOEL (No Observed Effect Level) (male CRj:CD(SD) rats)	EC50 [1]	sterilizing concentration [2]	death case (male CRj:CD(SD) rats; maximum dose of 1000 mg/kg/day, oral, 14 days)
O=CCCCC=O [glutaraldehyde]	5 mg/kg	9 µg/mL (≈ 89.9 µM)	63 ppm	–
O=CCCCCCCCC=O [NL, 1,9-nonanedial]	250 mg/kg	–	–	death case was not found

Source: patent publication US10085445B2, “Biocorrosion inhibitor for metal” (KURARAY CO., LTD., priority 2013, dated 2018)
